Measurements reported in PubChem BioAssay (NCI).
Where “and” joins values, the source holds several entries; their conditions need not be identical. Equal values may be shown once.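 Cultured in 96-well plates, cells were exposed to test compound for 48 hours across five concentrations. GI50 = concentration required for 50% inhibition of growth. TGI denotes the concentration required for complete inhibition of growth.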

Key:
Assay in all cases: growth of human tumour cells (NCI), 48 h
NCI-H226 lung = test system: NCI-H226 lung
HCT-116 colon = test system: HCT-116 colon
SNB-19 CNS = test system: SNB-19 CNS
SR leukemia = test system: SR leukemia
OVCAR-3 ovarian = test system: OVCAR-3 ovarian
SK-OV-3 ovarian = test system: SK-OV-3 ovarian
TK-10 renal = test system: TK-10 renal
HT29 colon = test system: HT29 colon
SN12C renal = test system: SN12C renal
RPMI-8226 leukemia = test system: RPMI-8226 leukemia

| Compound | TGI (NCI-H226 lung) [µM] | TGI (HCT-116 colon) | TGI (SNB-19 CNS) | TGI (SR leukemia) [µM] | TGI (OVCAR-3 ovarian) | TGI (SK-OV-3 ovarian) [µM] | TGI (TK-10 renal) | TGI (HT29 colon) | TGI (SN12C renal) | TGI (RPMI-8226 leukemia) [µM] | GI50 (HT29 colon) | GI50 (NCI-H226 lung) [µM] | GI50 (HCT-116 colon) [µM] | GI50 (SNB-19 CNS) [µM] | GI50 (SR leukemia) [µM] | GI50 (OVCAR-3 ovarian) [µM] | GI50 (SK-OV-3 ovarian) [µM] | GI50 (RPMI-8226 leukemia) [µM] | GI50 (SN12C renal) [µM] | GI50 (TK-10 renal) [µM] |
| --- | --- | --- | --- | --- | --- | --- | --- | --- | --- | --- | --- | --- | --- | --- | --- | --- | --- | --- | --- | --- |
| C/C=C1\CN2CCc3c([nH]c4ccccc34)C2CC1CCO (stereo not given) | > 100 | > 100 µM | > 100 µM | > 100 | > 100 µM | > 100 | > 100 µM | > 100 µM | > 100 µM | – | – | – | – | – | – | – | – | – | – | – |
| O=C1/C(=C/c2ccc(Cl)cc2)CNC/C1=C\c1ccc(Cl)cc1 | – | 3.07 µM and 3.85 µM | 3.14 µM and 11 µM | > 100 | 4.87 µM and 4.9 µM | > 100 | 25.9 µM and 12.3 µM | 0.697 µM and 3.38 µM | 6.38 µM and 14.3 µM | 0.722 | 0.254 µM and 1.28 µM | – | – | – | – | – | – | – | – | – |
| CNS(=O)(=O)NNS(=O)(=O)c1ccc(OC)cc1 | – | > 100 µM | > 100 µM | > 100 | > 100 µM | > 100 | – | > 100 µM | – | > 100 | – | – | – | – | – | – | – | – | – | – |
| COC(=O)C1=CC2C=CC(C1C(=O)OC)C1C(C(=O)OC)=C(C(=O)OC)C(C(=O)OC)=C(C(=O)OC)C21OC (stereo not given) | > 100 | > 100 µM | – | > 100 | > 100 µM | > 100 | > 100 µM | > 100 µM | > 100 µM | > 100 | – | – | – | – | – | – | – | – | – | – |
| CCN(CC)CCCC(C)N/C(=C1\C(=O)NC(=O)\C1=C(/NC(C)CCCN(CC)CC)c1cccc(OC)c1)c1cccc(OC)c1 (stereo not given) | 5.9 | 3.24 µM | 9.01 µM | 2.13 | 3.2 µM | 3.92 | – | 2.01 µM | 7.03 µM | 2.29 | 0.372 µM | 1.29 | 0.45 | 1.99 | 0.444 | 1.12 | 1.31 | 0.949 | 1.27 | – |
| Cc1cc(C)c(-c2noc(-c3ccc(Cl)cc3)c2C2=NCCCN2)c(C)c1 | 95.3 | > 100 µM | > 100 µM | > 100 | > 100 µM | > 100 | – | 32.5 µM | 82.6 µM | 45.3 | – | – | – | – | – | – | – | – | – | – |
| CC1C2C=C(O)C(=O)C(C2=O)C1c1ccccc1 (stereo not given) | > 100 | – | > 100 µM | > 100 | > 100 µM | > 100 | > 100 µM | > 100 µM | – | > 100 | – | – | – | – | – | – | – | – | – | – |
| Nc1ccccc1C(=O)CCC1C(=O)NC(=S)NC1=O | > 100 | > 100 µM | > 100 µM | > 100 | > 100 µM | > 100 | > 100 µM | > 100 µM | – | > 100 | – | – | – | – | – | – | – | – | – | – |
| COc1cccc(Nc2nc3ccccc3c3occc23)c1 | – | 34.4 µM | 25.8 µM | 95 | 21.2 µM | 22.7 | 17.2 µM | – | 35.1 µM | > 100 | – | – | 15.3 | 12.9 | 21.2 | 9.1 | 8.48 | 15.9 | 12.1 | 5.79 |
| N/N=C(/Cc1nc2ccc(C(=O)c3ccccc3)cc2[nH]c1=O)C(=O)Nc1ccc([N+](=O)[O-])cc1[N+](=O)[O-] | > 100 | > 100 µM | > 100 µM | > 100 | – | > 100 | > 100 µM | > 100 µM | > 100 µM | > 100 | > 100 µM | > 100 | > 100 | – | > 100 | – | – | > 100 | > 100 | – |
